Test results from patent publication US6503909B1, “Pyrazine compounds” (SmithKline Beecham Corporation, priority 1998, dated 2003).

System: male Han Wistar rats
Experiment: rat maximal electroshock test (MES)
Type: in vivo
Experimental: For example, male Han Wistar rats (150-200 grms) were dosed i.p. with a suspension of the test compound in 0.25% methylcellulose 2 hr prior to test. A visual observation was carried out just prior to testing for the presence of ataxia. Using auricular electrodes a current of 200 mA, duration 300 millisec, was applied and the presence or absence of hind limb extension noted.

For Nc1nnc(-c2cccc(Cl)c2Cl)c(N)n1 [lamotrigine], the ED50 (Rattus norvegicus, ip, dosed i.p. as suspension in 0.25% methylcellulose 2 hr prior to test, 200 mA, 300 millisec, auricular electrodes, read-out: ED50 (MES, hind limb extension)) was 6.1 mg/kg and the “therapeutic index (ratio of the ataxia ED50 and MES ED50)” value (i.p., 2 hr prior to test, ataxia by visual observation) was 3.3.
